Columns and labels:
human DGKα = human DGKα (Homo sapiens (Human), UniProt P23743); experiment: DGKα Biochemical Activity Assay (ADP-Glo); settings: recombinant DGKα 1 nM, 100 μM ATP, 18:1 DAG/POPS/octylglucoside micelles, 1 hour at 25° C.; geometric mean; read-out: HTBS DGKa 1X ATP KM IC50
Description: Alternatively, the enzymatic activity of human DGKα was monitored in a biochemical assay in the presence or absence of compounds and using micelles containing 18:1 Diacylglycerol (DAG), 16:0-18:1 PS (POPS) and Octylglucoside as substrate. DGKα activity led to conversion of DAG and ATP to Phosphatidic Acid (PA) and ADP. Levels of ADP were monitored by bioluminescence using the ADP-Glo Kinase Assay (Promega) and were indicative of DGKα activity.
Ten nanoliters of test compound dissolved in DMSO at various concentrations were dispensed into a 384-well low volume nonbinding service white plates (Corning #3824) using a Labcyte Echo instrument. Recombinant DGKα (Carna Biosciences) in assay buffer (5 μL in 50 mM MOPS [3-(N-morpholino) propanesulfonic acid], pH 7.2; 0.0025% Triton X-100; 1 mM dithiothreitol; 5 mM MgCl2, 200 μM ATP) was added to the compound-containing plate and was incubated for 15 minutes at 25° C. A substrate solution (5 μL in 1.7 mM 1,2-dioleoyl-sn-glycerol [18:1 DAG], 13.5 mM 1-palmitoyl-2-oleoyl-sn-glycero-3-phospho-L-serine [16:0-18:1 PS](POPS), 2 μM CaCl2, 100 mM Octylglucoside (OG), 1 mM DTT) (obtained from Carna Biosciences) diluted in DGK ALPHA assay buffer was then added to start the reaction. Final concentrations were 1 nM DGKα, 100 μM ATP, 1 μM calcium chloride, 0.85 mM 1,2-dioleoyl-sn-glycerol (18:1 DAG), 6.75 mM 1-palmitoyl-2-oleoyl-sn-glycero-3-phospho-L-serine (16:0-18:1 PS) (POPS), 1 μM CaCl2), 50 mM Octylglucoside (OG) and 5 mM MgCl2. The reaction mixture was incubated at 25° C. for 1 hour. ADP-Glo Reagent (10 μL, 10 mM Mg added) provided by the kit was added to each well and incubated at 25° C. for 40 minutes. Then, 20 μL of Kinase Detection Reagent was added and incubated at 25° C. for 40 minutes. Luciferase activity of each well was measured via luminescence on an Envision plate reader (PerkinElmer).
Data were normalized based on maximum inhibition (50 μM of kinase inhibitor CU3) and no inhibition (DMSO) controls. Least squares curve fittings were performed using a four-parameter variable slope nonlinear regression model. IC50 was defined as the concentration of compound required to inhibit 50% of maximum activity. IC50 values from multiple experiments were averaged by geometric mean and the standard deviation was calculated.

[1] = system: Jurkat NFκB-luciferase cells; experiment: Jurkat NFκB-Luciferase Assay; format: cell-based; settings: Homo sapiens; Jurkat NFκB-luciferase cells activated with anti-CD3 antibody (OKT3), 2.5 hrs at 37° C.; geometric mean; read-out: DGK NFKb Luciferase EC50
Protocol: The activity of compounds was tested in a cell based NFκB reporter assay. Jurkat cells that are stably expressing a luciferase reporter construct under the transcriptional control of a NFκB reporter element were activated with an anti-CD3 antibody and luciferase levels were measured with a bioluminescence readout. An increase in the levels of bioluminescence was indicative of enhanced T-cell activation following DGKα inhibition by the compound.
Flat-bottom polystyrene plates (384-well, tissue culture treated) were coated overnight at 4° C. with 20 ul/well of a solution of phosphate-buffered saline supplemented with 5 ug/ml anti-CD3 antibody (clone OKT3, Biolegend). The day after, the excess antibody was washed out five times with 100 ul/well of assay medium (RPMI supplemented with 10% fetal bovine serum) using a Biotek EL406 instrument and leaving 20 ul of residual volume in each well. Jurkat NFκB-luciferase cells (Promega #) were harvested and diluted to 1 million cells/ml in assay medium. Sixty nanoliters of test compound dissolved in DMSO at various concentrations were dispensed into 384-well v-bottom polypropylene plates (Greiner) using a Labcyte Echo instrument. Thirty microliters of medium containing the Jurkat NFκB-luciferase cells were then dispensed using a Biotek MicroFlo instrument in each well of the compound-containing plate. The medium/cell/compound mixture was mixed with a Bravo instrument and 20 ul/well of the mixture was transferred to the anti-CD3-coated plate. The assay mixture was then incubated for 2.5 hrs at 37° C. followed by equilibration at 25° C. for 30 min. Forty microliters of One-Glo Ex (Promega) was then added to the assay mixture and luciferase activity was read on a Envision plate reader 7 minutes later.
Bioluminescence data were normalized based on maximum enhancement (1 micromolar of compound) and on basal activation (DMSO) controls. Least squares curve fittings were performed using a four-parameter variable slope nonlinear regression model. EC50 is defined as the concentration of compound required to produce 50% of maximum NFκB luciferase signal. EC50 values from multiple experiments were averaged by geometric mean and the standard deviation was calculated.

human DGKα, sequence (P23743 whole entry): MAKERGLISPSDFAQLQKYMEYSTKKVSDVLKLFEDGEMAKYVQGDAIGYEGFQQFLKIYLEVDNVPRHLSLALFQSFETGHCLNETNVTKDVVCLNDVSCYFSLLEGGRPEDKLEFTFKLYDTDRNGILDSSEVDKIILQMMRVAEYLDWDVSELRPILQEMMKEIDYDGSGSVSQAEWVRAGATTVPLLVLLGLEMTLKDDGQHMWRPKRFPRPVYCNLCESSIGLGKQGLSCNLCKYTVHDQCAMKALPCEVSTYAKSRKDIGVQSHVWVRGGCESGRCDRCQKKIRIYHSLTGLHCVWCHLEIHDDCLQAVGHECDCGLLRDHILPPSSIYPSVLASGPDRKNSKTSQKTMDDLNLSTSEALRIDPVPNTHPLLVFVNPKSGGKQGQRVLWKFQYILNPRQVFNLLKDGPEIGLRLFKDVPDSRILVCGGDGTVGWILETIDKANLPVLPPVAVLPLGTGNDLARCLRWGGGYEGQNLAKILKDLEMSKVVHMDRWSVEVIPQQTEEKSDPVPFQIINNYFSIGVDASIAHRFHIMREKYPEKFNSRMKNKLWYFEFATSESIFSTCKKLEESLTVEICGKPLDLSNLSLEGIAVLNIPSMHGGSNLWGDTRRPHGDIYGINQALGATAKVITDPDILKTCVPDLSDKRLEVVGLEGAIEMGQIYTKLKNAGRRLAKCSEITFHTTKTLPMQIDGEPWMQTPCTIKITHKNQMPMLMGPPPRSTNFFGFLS

Compound | IC50 (human DGKα) [nM] | EC50 [1] [nM]
Cc1nnc2nc(N3CCCc4c(C#CC5(C(F)(F)F)CC5)cncc43)c3c(F)cncc3n12 [Example 39, 6-fluoro-1-methyl-5-(5-((1-(trifluoromethyl)cyclopropyl)ethynyl)-3,4-dihydro-1,7-naphthyridin-1(2H)-yl)pyrido[4,3-e][1,2,4]triazolo[4,3-a]pyrimidine] | 26.2 | 4.82
Cc1nnc2nc(N3CCCc4c(C#CC5(C)CC5)cccc43)c3c(F)cncc3n12 [Example 40, 6-fluoro-1-methyl-5-(5-((1-methylcyclopropyl)ethynyl)-3,4-dihydroquinolin-1(2H)-yl)pyrido[4,3-e][1,2,4]triazolo[4,3-a]pyrimidine] | 7.92 | 2.14
CC(C)(O)C#Cc1cc(F)cc(N(CC(F)F)c2nc3nncn3c3cncc(F)c23)c1 [Example 42, 4-(3-((2,2-difluoroethyl)(6-fluoropyrido[4,3-e][1,2,4]triazolo[4,3-a]pyrimidin-5-yl)amino)-5-fluorophenyl)-2-methylbut-3-yn-2-ol] | 35.4 | 43
Fc1cc(C#CC2(C(F)F)CC2)cc(N(CC(F)F)c2nc3nncn3c3cncc(F)c23)c1 [Example 43, N-(2,2-difluoroethyl)-N-(3-((1-(difluoromethyl)cyclopropyl)ethynyl)-5-fluorophenyl)-6-fluoropyrido[4,3-e][1,2,4]triazolo[4,3-a]pyrimidin-5-amine] | 33 | 5.48
CC(C)(C)C#Cc1cc(F)cc(N(CC(F)F)c2nc3nncn3c3cncc(F)c23)c1 [Example 44, N-(2,2-difluoroethyl)-N-(3-(3,3-dimethylbut-1-yn-1-yl)-5-fluorophenyl)-6-fluoropyrido[4,3-e][1,2,4]triazolo[4,3-a]pyrimidin-5-amine] | 32.7 | 1.93

More lines, now with the values ahead:

IC50 (human DGKα) [nM] | EC50 [1] [nM] | Compound
52.1 | 2.67 | CC1(C#Cc2cc(F)cc(N(CC(F)F)c3nc4nncn4c4cncc(F)c34)c2)CC1 [Example 45, N-(2,2-difluoroethyl)-6-fluoro-N-(3-fluoro-5-((1-methylcyclopropyl)ethynyl)phenyl)pyrido[4,3-e][1,2,4]triazolo[4,3-a]pyrimidin-5-amine]
40.9 | 3.34 | CC(C)(C#Cc1cc(F)cc(N(CC(F)F)c2nc3nncn3c3cncc(F)c23)c1)C(F)(F)F [Example 46, N-(2,2-difluoroethyl)-6-fluoro-N-(3-fluoro-5-(4,4,4-trifluoro-3,3-dimethylbut-1-yn-1-yl)phenyl)pyrido[4,3-e][1,2,4]triazolo[4,3-a]pyrimidin-5-amine]
50.7 | 4.27 | Fc1cc(C#CC2(C(F)(F)F)CC2)cc(N(CC(F)F)c2nc3nncn3c3cncc(F)c23)c1 [Example 47, N-(2,2-difluoroethyl)-6-fluoro-N-(3-fluoro-5-((1-(trifluoromethyl)cyclopropyl)ethynyl)phenyl)pyrido[4,3-e][1,2,4]triazolo[4,3-a]pyrimidin-5-amine]
48.9 | 97.2 | Cc1nnc2nc(N(CC(F)F)c3cc(F)cc(C#CC(C)(C)O)c3)c3c(F)cncc3n12 [Example 48, 4-(3-((2,2-difluoroethyl)(6-fluoro-1-methylpyrido[4,3-e][1,2,4]triazolo[4,3-a]pyrimidin-5-yl)amino)-5-fluorophenyl)-2-methylbut-3-yn-2-ol]
12.6 | 6.04 | Cc1nnc2nc(N(CC(F)F)c3cc(F)cc(C#CC4(C)CC4)c3)c3c(F)cncc3n12 [Example 49, N-(2,2-difluoroethyl)-6-fluoro-N-(3-fluoro-5-((1-methylcyclopropyl)ethynyl)phenyl)-1-methylpyrido[4,3-e][1,2,4]triazolo[4,3-a]pyrimidin-5-amine]
13 | 4.91 | Cc1nnc2nc(N(CC(F)F)c3cc(F)cc(C#CC(C)(C)C(F)(F)F)c3)c3c(F)cncc3n12 [Example 50, N-(2,2-difluoroethyl)-6-fluoro-N-(3-fluoro-5-(4,4,4-trifluoro-3,3-dimethylbut-1-yn-1-yl)phenyl)-1-methylpyrido[4,3-e][1,2,4]triazolo[4,3-a]pyrimidin-5-amine]

From patent US11926628B2 (Gilead Sciences, Inc., priority 2021, dated 2024)
